Laboratory results as given in ChEMBL document CHEMBL4406807, “Discovery of 3,4,6-Trisubstituted Piperidine Derivatives as Orally Active, Low hERG Blocking Akt Inhibitors via Conformational Restriction and Structure-Based Design” (J Med Chem, 2019).

Assays:
OVCAR-8 = assay: Antiproliferative activity against human OVCAR8 cells; type: functional, cell-based
[1] = Microsomal stability in mouse liver microsomes assessed as compound remaining at 100 ug/ml in presence of NADPH measured at 1.5 hrs by LC/MS analysis; type: ADME, Microsome; settings: read-out: Stability
[2] = Microsomal stability in rat liver microsomes assessed as compound remaining at 100 ug/ml in presence of NADPH measured at 1.5 hrs by LC/MS analysis; type: ADME, Microsome; settings: read-out: Stability
[3] = Microsomal stability in monkey liver microsomes assessed as compound remaining at 100 ug/ml in presence of NADPH measured at 1.5 hrs by LC/MS analysis; type: ADME, Macaca mulatta, Microsome; settings: rhesus monkey, read-out: Stability
[4] = target: Serine/threonine-protein kinase AKT (Homo sapiens, UniProt P31751+Q9Y243+P31749); assay: Inhibition of Akt in human LNCaP cells assessed as reduction in PRAS40 phosphorylation at T246 residue after 1 hr by ELISA; type: cell-based
LNCaP = assay: Antiproliferative activity against human LNCAP cells; type: functional, cell-based
[5] = target: RAC-beta serine/threonine-protein kinase (Homo sapiens, UniProt P31751); assay: Inhibition of human Akt2 by mobile shift assay
[6] = target: RAC-gamma serine/threonine-protein kinase (Homo sapiens, UniProt Q9Y243); assay: Inhibition of Akt3 (unknown origin) by mobile shift assay
[7] = target: Rho-associated protein kinase 1 (Homo sapiens, UniProt Q13464); assay: Inhibition of human ROCK1 by mobile shift assay
[8] = target: Ribosomal protein S6 kinase beta-1 (Homo sapiens, UniProt P23443); assay: Inhibition of human P70S6K by mobility shift assay
[9] = Tmax in ICR mouse at 40 mg/kg, ig measured up to 48 hrs by LC-MS/MS analysis; type: ADME, organism-based; settings: in vivo, po
[10] = Half-life in ICR mouse at 40 mg/kg, ig measured up to 48 hrs by LC-MS/MS analysis; type: ADME, organism-based; settings: in vivo, po
[11] = AUC (0 to t) in ICR mouse at 40 mg/kg, ig measured up to 48 hrs by LC-MS/MS analysis; type: ADME, organism-based; design: time < 48 hr, dose 40 mg/kg, route […]; settings: in vivo, po
[12] = MRT (0 to infinity) in ICR mouse at 40 mg/kg, ig measured up to 48 hrs by LC-MS/MS analysis; type: ADME, organism-based; settings: in vivo, po
[13] = Volume of distribution in ICR mouse at 40 mg/kg, ig measured up to 48 hrs by LC-MS/MS analysis; type: ADME, organism-based; settings: in vivo, po
[14] = Stability in human plasma at 100 ug/ml after 1 hr by LC/MS analysis; type: ADME, cell-free; settings: read-out: Stability
[15] = Tmax in Sprague-Dawley rat at 40 mg/kg, ig measured up to 24 hrs by LC-MS/MS analysis; type: ADME, organism-based; settings: in vivo, po
[16] = Half-life in Sprague-Dawley rat at 40 mg/kg, ig measured up to 24 hrs by LC-MS/MS analysis; type: ADME, organism-based; settings: in vivo, po
[17] = Cmax in Sprague-Dawley rat at 40 mg/kg, ig measured up to 24 hrs by LC-MS/MS analysis; type: ADME, organism-based; design: dose 40 mg/kg, route […]; settings: in vivo, po
[18] = Clearance in Sprague-Dawley rat at 40 mg/kg, ig measured up to 24 hrs by LC-MS/MS analysis; type: ADME, organism-based; settings: in vivo, po
[19] = AUC (0 to t) in Sprague-Dawley rat at 40 mg/kg, ig measured up to 24 hrs by LC-MS/MS analysis; type: ADME, organism-based; design: time < 24 hr, dose 40 mg/kg, route […]; settings: in vivo, po
[20] = AUC (0 to infinity) in Sprague-Dawley rat at 40 mg/kg, ig measured up to 24 hrs by LC-MS/MS analysis; type: ADME, organism-based; design: dose 40 mg/kg, route […], time infinity; settings: in vivo, po
[21] = MRT (0 to t) in Sprague-Dawley rat at 40 mg/kg, ig measured up to 24 hrs by LC-MS/MS analysis; type: ADME, organism-based; settings: in vivo, po
[22] = Volume of distribution in Sprague-Dawley rat at 40 mg/kg, ig measured up to 24 hrs by LC-MS/MS analysis; type: ADME, organism-based; settings: in vivo, po
SK-OV-3 [23] = assay: Induction of apoptosis in human SKOV3 cells at 10 uM by FACS based flow cytometric analysis (reference value: 7.63%); type: functional
[24] = Toxicity in ICR mouse assessed as effect on body weight at 80 to 160 mg/kg, ig administered once daily for 7 days; type: organism-based; settings: in vivo, po, 168 h
[25] = Toxicity in ICR mouse assessed as maximum tolerated dose, ig administered once daily for 7 days; settings: in vivo, po
[26] = Toxicity in ICR mouse assessed as effect on serum hematology at 80 to 160 mg/kg, ig; type: organism-based; settings: in vivo, po
[27] = Toxicity in ICR mouse assessed as effect on biochemical parameter at 80 to 160 mg/kg, ig; type: organism-based; settings: in vivo, po
[28] = Toxicity in ICR mouse assessed as induction of intestinal hemorrhage at 80 to 160 mg/kg, ig; type: organism-based; settings: in vivo, po
SK-OV-3 [29] = assay: Antitumor activity against human SKOV3 cells xenografted in BALB/c nude mouse assessed as tumor growth inhibition at 40 mg/kg, po BID for 21 days; type: functional; settings: SK-OV-3, po, 504 h, read-out: TGI
SK-OV-3 [30] = assay: Antitumor activity against human SKOV3 cells xenografted in BALB/c nude mouse assessed as tumor growth inhibition at 80 mg/kg, po administered once daily for 21 days relative to control; type: functional; settings: SK-OV-3, po, 504 h, read-out: TGI
[31] = Toxicity in BALB/c nude mouse xenografted with human SKOV3 cells assessed as reduction in mouse survival at 60 to 80 mg/kg, po administered once daily for 21 days; type: organism-based; settings: in vivo, 504 h
[32] = target: Sodium channel protein type 9 subunit alpha (Homo sapiens, UniProt Q15858); assay: Inhibition of Nav1.7 (unknown origin)
[33] = target: Inward rectifier potassium channel 2 (Homo sapiens, UniProt P63252); assay: Inhibition of Kir2.1 (unknown origin) at 3 uM relative to control
[34] = target: Potassium voltage-gated channel subfamily A member 2 (Homo sapiens, UniProt P16389); assay: Inhibition of Kv1.2 (unknown origin) at 3 uM relative to control
[35] = target: Potassium voltage-gated channel subfamily A member 3 (Homo sapiens, UniProt P22001); assay: Inhibition of Kv1.3 (unknown origin) at 3 uM relative to control
[36] = target: Potassium voltage-gated channel subfamily A member 4 (Homo sapiens, UniProt P22459); assay: Inhibition of Kv1.4 (unknown origin) at 3 uM relative to control
[37] = target: Potassium voltage-gated channel subfamily A member 6 (Homo sapiens, UniProt P17658); assay: Inhibition of Kv1.6 (unknown origin) at 3 uM relative to control
[38] = target: Potassium voltage-gated channel subfamily A member 7 (Homo sapiens, UniProt Q96RP8); assay: Inhibition of Kv1.7 (unknown origin) at 3 uM relative to control
[39] = target: Potassium/sodium hyperpolarization-activated cyclic nucleotide-gated channel 2 (Homo sapiens, UniProt Q9UL51); assay: Inhibition of HCN2 (unknown origin) at 3 uM relative to control
[40] = Toxicity in ICR mouse assessed as reduction in organ to brain weight ratio of thymus at 80 to 160 mg/kg, ig once daily for 7 days; type: organism-based; settings: in vivo, po, 168 h

Sequence of Ribosomal protein S6 kinase beta-1 (P23443 whole entry): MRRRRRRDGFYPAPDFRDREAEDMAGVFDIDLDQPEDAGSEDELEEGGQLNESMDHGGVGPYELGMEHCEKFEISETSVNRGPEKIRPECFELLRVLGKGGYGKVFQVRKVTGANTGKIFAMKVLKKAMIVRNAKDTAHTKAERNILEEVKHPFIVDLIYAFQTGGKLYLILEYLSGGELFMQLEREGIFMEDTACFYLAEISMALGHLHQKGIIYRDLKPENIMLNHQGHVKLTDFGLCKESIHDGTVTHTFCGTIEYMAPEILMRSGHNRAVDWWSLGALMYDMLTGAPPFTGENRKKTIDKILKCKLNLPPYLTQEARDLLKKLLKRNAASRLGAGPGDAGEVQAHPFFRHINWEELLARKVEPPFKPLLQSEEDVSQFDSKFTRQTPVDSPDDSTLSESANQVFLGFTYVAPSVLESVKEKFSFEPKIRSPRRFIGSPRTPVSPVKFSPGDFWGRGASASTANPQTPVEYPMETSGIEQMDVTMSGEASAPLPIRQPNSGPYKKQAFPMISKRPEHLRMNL
Sequence of Potassium voltage-gated channel subfamily A member 6 (P17658 whole entry): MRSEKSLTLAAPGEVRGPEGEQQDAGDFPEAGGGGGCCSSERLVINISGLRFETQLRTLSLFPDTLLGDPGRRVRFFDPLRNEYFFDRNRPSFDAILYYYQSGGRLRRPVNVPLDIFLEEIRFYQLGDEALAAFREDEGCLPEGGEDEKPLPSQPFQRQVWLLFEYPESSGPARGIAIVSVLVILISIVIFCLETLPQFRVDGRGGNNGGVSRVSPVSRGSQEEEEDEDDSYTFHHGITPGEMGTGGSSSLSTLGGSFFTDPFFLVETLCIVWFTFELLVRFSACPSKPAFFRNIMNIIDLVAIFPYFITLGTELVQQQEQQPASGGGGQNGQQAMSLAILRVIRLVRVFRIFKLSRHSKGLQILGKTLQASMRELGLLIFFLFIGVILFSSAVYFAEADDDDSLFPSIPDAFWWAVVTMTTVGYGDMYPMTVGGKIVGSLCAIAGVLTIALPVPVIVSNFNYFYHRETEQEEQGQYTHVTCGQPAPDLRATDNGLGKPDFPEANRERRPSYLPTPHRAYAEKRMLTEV
Sequence of Potassium voltage-gated channel subfamily A member 4 (P22459 whole entry): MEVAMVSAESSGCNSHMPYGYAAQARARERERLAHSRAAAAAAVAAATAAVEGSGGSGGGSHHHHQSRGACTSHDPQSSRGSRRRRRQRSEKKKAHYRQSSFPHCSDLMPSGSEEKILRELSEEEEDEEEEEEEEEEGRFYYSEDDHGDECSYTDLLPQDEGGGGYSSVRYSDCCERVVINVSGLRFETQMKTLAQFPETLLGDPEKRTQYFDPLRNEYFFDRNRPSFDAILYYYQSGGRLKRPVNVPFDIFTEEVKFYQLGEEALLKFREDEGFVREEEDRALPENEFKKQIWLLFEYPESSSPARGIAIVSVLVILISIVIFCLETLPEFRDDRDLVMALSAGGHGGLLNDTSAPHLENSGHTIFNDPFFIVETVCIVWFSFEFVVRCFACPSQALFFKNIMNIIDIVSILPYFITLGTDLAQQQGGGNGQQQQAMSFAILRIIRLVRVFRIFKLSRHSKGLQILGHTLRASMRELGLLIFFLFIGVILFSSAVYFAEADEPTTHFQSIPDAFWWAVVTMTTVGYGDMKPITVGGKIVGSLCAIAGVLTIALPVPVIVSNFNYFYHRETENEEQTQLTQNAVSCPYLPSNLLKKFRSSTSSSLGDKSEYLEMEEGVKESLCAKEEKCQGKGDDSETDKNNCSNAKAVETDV
Sequence of Rho-associated protein kinase 1 (Q13464 whole entry): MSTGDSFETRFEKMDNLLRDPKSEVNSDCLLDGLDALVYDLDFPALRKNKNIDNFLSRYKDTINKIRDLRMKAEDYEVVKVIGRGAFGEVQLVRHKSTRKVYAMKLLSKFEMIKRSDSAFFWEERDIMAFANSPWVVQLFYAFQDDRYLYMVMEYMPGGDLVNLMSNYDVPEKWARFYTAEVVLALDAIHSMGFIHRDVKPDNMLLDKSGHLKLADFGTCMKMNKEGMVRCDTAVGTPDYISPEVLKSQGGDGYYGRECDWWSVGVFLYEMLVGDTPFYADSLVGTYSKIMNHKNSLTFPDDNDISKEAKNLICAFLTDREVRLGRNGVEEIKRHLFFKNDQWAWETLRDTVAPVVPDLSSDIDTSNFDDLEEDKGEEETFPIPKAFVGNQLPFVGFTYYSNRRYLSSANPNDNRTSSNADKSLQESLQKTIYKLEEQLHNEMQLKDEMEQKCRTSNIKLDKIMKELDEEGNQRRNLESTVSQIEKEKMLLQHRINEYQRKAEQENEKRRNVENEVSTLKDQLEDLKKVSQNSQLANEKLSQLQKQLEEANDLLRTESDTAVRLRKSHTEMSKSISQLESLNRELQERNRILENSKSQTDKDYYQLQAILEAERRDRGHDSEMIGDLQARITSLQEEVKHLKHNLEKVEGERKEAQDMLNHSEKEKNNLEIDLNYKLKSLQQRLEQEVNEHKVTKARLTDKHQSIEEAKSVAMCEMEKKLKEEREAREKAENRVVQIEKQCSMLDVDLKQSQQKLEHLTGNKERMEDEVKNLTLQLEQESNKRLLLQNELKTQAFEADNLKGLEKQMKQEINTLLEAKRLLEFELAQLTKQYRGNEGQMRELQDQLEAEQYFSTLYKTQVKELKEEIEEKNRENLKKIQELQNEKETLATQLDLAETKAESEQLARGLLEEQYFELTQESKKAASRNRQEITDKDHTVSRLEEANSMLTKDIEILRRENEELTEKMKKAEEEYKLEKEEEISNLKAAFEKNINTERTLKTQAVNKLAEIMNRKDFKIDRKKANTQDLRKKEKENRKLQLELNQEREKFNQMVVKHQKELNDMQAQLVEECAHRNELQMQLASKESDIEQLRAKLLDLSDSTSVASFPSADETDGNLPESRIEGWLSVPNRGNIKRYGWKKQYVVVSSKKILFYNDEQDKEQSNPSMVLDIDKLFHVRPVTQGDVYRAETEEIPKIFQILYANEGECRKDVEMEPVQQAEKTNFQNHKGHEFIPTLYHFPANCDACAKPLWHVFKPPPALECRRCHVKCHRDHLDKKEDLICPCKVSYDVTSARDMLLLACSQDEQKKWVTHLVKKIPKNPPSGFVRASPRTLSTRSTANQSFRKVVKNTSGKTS
Sequence of RAC-gamma serine/threonine-protein kinase (Q9Y243 whole entry): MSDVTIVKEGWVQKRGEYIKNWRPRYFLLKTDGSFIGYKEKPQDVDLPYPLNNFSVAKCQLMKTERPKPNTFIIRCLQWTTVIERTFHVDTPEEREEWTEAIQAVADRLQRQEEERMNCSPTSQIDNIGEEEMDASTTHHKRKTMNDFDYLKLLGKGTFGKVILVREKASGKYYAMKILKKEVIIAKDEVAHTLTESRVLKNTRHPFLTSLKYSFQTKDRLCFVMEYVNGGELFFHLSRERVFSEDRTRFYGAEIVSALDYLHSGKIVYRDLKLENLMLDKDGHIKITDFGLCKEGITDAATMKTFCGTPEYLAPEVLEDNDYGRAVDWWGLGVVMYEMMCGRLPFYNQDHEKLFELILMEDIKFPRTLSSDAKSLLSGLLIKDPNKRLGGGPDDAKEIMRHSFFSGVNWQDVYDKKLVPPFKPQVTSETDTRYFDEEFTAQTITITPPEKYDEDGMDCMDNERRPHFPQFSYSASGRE
Sequence of RAC-beta serine/threonine-protein kinase (P31751 whole entry): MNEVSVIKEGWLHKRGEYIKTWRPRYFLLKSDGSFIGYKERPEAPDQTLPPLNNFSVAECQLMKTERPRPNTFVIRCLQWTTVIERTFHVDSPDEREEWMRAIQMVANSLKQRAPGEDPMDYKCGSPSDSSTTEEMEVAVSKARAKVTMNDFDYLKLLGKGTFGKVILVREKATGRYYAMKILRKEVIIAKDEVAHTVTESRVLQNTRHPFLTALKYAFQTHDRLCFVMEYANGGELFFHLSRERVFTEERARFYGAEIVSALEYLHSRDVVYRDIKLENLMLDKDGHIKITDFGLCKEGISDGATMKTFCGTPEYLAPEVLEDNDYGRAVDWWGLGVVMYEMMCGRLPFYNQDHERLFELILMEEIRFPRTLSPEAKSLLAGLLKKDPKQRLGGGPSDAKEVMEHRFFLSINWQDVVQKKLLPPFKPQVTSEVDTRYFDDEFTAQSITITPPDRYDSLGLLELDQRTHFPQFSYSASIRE
Sequence of Inward rectifier potassium channel 2 (P63252 whole entry): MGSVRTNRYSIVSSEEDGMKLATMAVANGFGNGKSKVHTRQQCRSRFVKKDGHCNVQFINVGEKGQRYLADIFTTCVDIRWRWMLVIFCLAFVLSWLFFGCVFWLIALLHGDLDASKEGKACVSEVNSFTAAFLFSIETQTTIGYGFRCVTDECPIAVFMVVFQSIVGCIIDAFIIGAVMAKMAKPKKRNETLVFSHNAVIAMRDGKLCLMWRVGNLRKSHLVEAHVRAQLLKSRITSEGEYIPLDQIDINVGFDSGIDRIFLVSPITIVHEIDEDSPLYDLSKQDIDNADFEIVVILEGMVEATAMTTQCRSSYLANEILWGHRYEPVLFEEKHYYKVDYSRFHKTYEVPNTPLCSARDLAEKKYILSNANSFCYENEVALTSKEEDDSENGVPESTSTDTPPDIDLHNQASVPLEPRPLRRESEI
Sequence of Potassium voltage-gated channel subfamily A member 7 (Q96RP8 whole entry): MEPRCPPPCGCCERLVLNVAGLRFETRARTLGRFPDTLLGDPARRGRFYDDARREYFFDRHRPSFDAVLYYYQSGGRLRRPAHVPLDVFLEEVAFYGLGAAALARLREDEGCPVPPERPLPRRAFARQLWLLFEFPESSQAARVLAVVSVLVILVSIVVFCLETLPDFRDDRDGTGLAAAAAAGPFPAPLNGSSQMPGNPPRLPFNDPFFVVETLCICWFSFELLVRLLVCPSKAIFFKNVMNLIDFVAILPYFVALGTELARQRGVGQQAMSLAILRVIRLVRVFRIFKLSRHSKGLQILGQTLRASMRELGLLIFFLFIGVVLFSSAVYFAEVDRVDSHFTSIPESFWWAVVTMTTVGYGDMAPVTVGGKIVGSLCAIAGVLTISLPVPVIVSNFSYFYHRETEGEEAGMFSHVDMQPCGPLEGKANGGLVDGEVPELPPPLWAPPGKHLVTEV

SMILES: CNC(=O)C[C@@H]1C[C@@H](c2ccc(F)c(F)c2)[C@H](NC(=O)c2cc(-c3c(Cl)cnn3C)c(Cl)o2)CN1
- IC50 (OVCAR-8): 800 nM
- remaining at 1.5 h, 100 ug/ml [1]: > 99%
- remaining at 1.5 h, 100 ug/ml [2]: 89%
- remaining at 1.5 h, 100 ug/ml [3]: 84%
- IC50 [4]: 44 nM
- IC50 (LNCaP): 50 nM
- IC50 [5]: 1.2 nM
- IC50 [6]: 1.7 nM
- IC50 [7]: 64 nM
- IC50 [8]: 8.9 nM
- Tmax [9]: 1 h
- half-life [10]: 3.3 h
- AUC(0-t) at 48 h [11]: 21100 ng·h/mL
- MRT inf [12]: 5.3 h
- Vd [13]: 9 L/kg
- remaining at 1 h, 100 ug/ml [14]: > 99%
- Tmax [15]: 1.8 h
- half-life [16]: 6.4 h
- Cmax [17]: 407 ng/mL
- CL/F [18]: 237 mL/min/kg
- AUC(0-t) at 24 h [19]: 2440 ng·h/mL
- AUC(0-inf) [20]: 3090 ng·h/mL
- MRT last at 24 h [21]: 5.8 h
- Vd [22]: 147.2 L/kg
- Activity (SK-OV-3 [23]): 79.9%
- Activity [24]: Non-Toxic
- MTD at 168 h [25]: ≥ 80 mg/kg
- Activity [26]: Non-Toxic
- Activity [27]: Non-Toxic
- Activity [28]: Toxic
- inhibition in vivo at 40 mg/kg (SK-OV-3 [29]): 82.5%
- inhibition in vivo at 80 mg/kg (SK-OV-3 [30]): 90%
- Activity [31]: Non-Toxic
- inhibition (INH) [32]: Not Active
- inhibition (INH) [33]: Not Active
- inhibition (INH) [34]: Not Active
- inhibition (INH) [35]: Not Active
- inhibition (INH) [36]: Not Active
- inhibition (INH) [37]: Not Active
- inhibition (INH) [38]: Not Active
- inhibition (INH) [39]: Not Active
- Activity [40]: Toxic
